{
  "source": "patent US20040170959A1",
  "about": "“Methods for identifying antiviral oligonucleotides” (priority 2002, published 2004)",
  "key": {"[1]": {"system": "Hep2 cells", "conditions": "uninfected cells treated 7 days"}, "[2]": {"conditions": "human, in vivo; cited from earlier work"}, "[3]": {"system": "Hepatitis C virus (HCV)", "conditions": "prolonged therapy; cited from earlier work"}},
  "data": [
    {"compound": "NC(=O)c1ncn([C@@H]2O[C@H](CO)[C@@H](O)[C@H]2O)n1", "note": "[Ribavirin]", "values": [
      {"measurement": "toxicity in Hep2 cells", "setting": "[1]", "value": "significantly toxic"}
    ]},
    {"compound": "Nc1nc(O)c2ncn(COC(CO)CO)c2n1", "note": "[ganciclovir]", "values": [
      {"measurement": "neutropenia and thrombocytopenia, share of patients treated", "setting": "[2]", "value": 40, "unit": "%"}
    ]},
    {"compound": "O=c1[nH]c(=O)n([C@H]2C[C@H](O)[C@@H](CO)O2)cc1I", "note": "[idoxuridine]", "values": [
      {"measurement": "allergic reactions, share of patients treated", "setting": "[2]", "value": 35, "unit": "%"}
    ]},
    {"compound": "interferon alpha", "values": [
      {"measurement": "share of patients in whom therapy is effective", "setting": "[3]", "value": "about 40% of patients"}
    ]}
  ]
}
